This note sets out measurements from US20040209914A1, “Aromatic sulfone hydroxamic acids and their use as protease inhibitors” (priority 2000, published 2004).

What is called IC50 is the concentration that gives 50% inhibition.

Where a name gives a salt, the structure may show the parent alone.

For one test, the target named is T1, Recombinant human MMP-13 (Homo sapiens, UniProt P45452).
T1 construct: made in house; host or cells: baculovirus / insect cells
In words: biochemical. Conditions: fluorogenic MCA-peptide substrate, pH 7.5, room temperature; read-out: MMP-13 IC50. As for the experimental part:
(§1) Recombinant human MMP-1, MMP-2, MMP-9, MMP-13, and were used in this assay. These enzymes were prepared in the Assignee's es following usual laboratory procedures. Specifics for preparing and e enzymes can be found in the scientific literature describing these See, e.g., Enzyme Nomenclature (Academic Press, San Diego, Calif., d the citations therein).
The expressed proenzyme was first purified over a heparin agarose column, and then over a chelating zinc chloride column. The proenzyme was then activated by APMA for use in the assay.
(§2) The enzyme substrate was a methoxycoumarin-containing polypeptide having the following sequence:
(§3) MCA-ProLeuGlyLeuDpaAlaArgNH2
(§4) Here, “MCA” is methoxycoumarin and “Dpa” is 3-(2,4-dinitrophenyl)-L-2,3-diaminopropionyl alanine.
(§5) These solutions were then compared to a control (which contained equal amount of DMSO/buffer solution, but no hydroxamate compound) using Microfluor™ White Plates (Dynatech, Chantilly, Va.). Specifically, The MMPs were activated with APMA or trypsin. […] The control likewise was incubated at room temperature in separate plates with the MMP and 4 uM of the MMP substrate. […] Inhibition was measured as a reduction in fluorescent intensity as a function of inhibitor concentration using a Perkin Elmer (Norwalk, Conn.) L550 plate reader. The IC50's were then calculated from these measurements.

The next test has as its target T2, Recombinant human MMP-2 (Homo sapiens, UniProt P08253).
T2 construct: made in house
T2 sequence (P08253 110-660): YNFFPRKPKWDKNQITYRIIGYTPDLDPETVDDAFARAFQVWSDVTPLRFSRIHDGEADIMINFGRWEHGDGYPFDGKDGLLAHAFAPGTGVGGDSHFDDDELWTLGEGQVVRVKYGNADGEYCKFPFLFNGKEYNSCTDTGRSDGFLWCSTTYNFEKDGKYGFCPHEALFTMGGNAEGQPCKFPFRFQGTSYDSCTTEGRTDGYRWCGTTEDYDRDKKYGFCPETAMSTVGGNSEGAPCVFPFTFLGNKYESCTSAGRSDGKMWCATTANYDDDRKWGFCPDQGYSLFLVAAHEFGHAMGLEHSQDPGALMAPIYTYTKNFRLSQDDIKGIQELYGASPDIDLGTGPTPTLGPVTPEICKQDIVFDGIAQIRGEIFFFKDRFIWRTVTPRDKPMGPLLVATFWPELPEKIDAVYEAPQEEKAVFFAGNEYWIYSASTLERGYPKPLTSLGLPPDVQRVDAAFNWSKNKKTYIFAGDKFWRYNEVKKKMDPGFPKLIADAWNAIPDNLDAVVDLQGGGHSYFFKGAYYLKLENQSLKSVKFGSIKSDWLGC
The test is described as follows: biochemical. The following applies: fluorogenic MCA-peptide substrate, pH 7.5, room temperature; read-out: MMP-2 IC50. As for the experimental part:
as §1
The MMP-2 was obtained from MMP-2 expressing transfected cells provided by Dr. Gregory Goldberg of Washington University.
as §2, §3, §4, §5

On to `CNc1ccc(C(=O)C2CCN(c3ccc(S(=O)(=O)C4(C(=O)NO)CCN(S(C)(=O)=O)CC4)cc3)CC2)cc1` [Example 167], for which the IC50 on Recombinant human MMP-13 is 4.7 nM; at Recombinant human MMP-2, 2950 nM.

For `O=C(NO)C1(S(=O)(=O)c2ccc(N3CCC(SCc4ccc(OC(F)(F)F)cc4)CC3)cc2)CCNCC1` [Example 146], the IC50 at Recombinant human MMP-13 amounted to 4 nM; on Recombinant human MMP-2, 200 nM.

Turning to `C[C@@H]1C[C@H](C)CN(C(=O)C2CCN(c3ccc(S(=O)(=O)C4(C(=O)NO)CCNCC4)cc3)CC2)C1` [Example 74, rel-4-[[4-[4-[[(3R,5S)-3,5-dimethyl-1-piperidinyl]carbonyl]-1-piperidinyl]phenyl]sulfonyl]-N-hydroxy-4-piperidinecarboxamide, monohydrochloride], the IC50 at Recombinant human MMP-2 worked out at 10000 nM.

Regarding `C[C@H]1C[C@H](C)CN(C(=O)C2CCN(c3ccc(S(=O)(=O)C4(C(=O)NO)CCNCC4)cc3)CC2)C1` (relative stereo) [Example 72, rel-4-[[4-[4-[[(3R,5R)-3,5-dimethyl-1-piperidinyl]carbonyl]-1-piperidinyl]phenyl]sulfonyl]-N-hydroxy-4-piperidinecarboxamide, monohydrochloride], at Recombinant human MMP-2, the IC50 worked out at 10000 nM.

On to `CCN1CCC(C(=O)NO)(S(=O)(=O)c2ccc(N3CCC(C(=O)c4ccc(NC)cc4)CC3)cc2)CC1` [Example 172], for which the IC50 on Recombinant human MMP-13 was determined as 3.1 nM; at Recombinant human MMP-2, 649 nM.

In the case of `CN(C)Cc1ccc(C(=O)C2CCN(c3ccc(S(=O)(=O)C4(C(=O)NO)CCOCC4)cc3)CC2)cc1` [Example 384], the IC50 came out at 2.9 nM at Recombinant human MMP-13 and 52.9 nM at Recombinant human MMP-2.

As for `COCCN1CCC(C(=O)NO)(S(=O)(=O)c2ccc(N3CCC(C(=O)c4ccc(CCC(C)O)cc4)CC3)cc2)CC1` (stereo not drawn) [Example 245], the IC50 on Recombinant human MMP-13 amounted to 1.1 nM; on Recombinant human MMP-2, 38.6 nM.

As to `COCCN1CCC(C(=O)NO)(S(=O)(=O)c2ccc(N3CCC(C(=O)c4ccc(OC(C)C)c(F)c4)CC3)cc2)CC1` [Example 250], the IC50 on Recombinant human MMP-13 came to 2.1 nM; on Recombinant human MMP-2, 107 nM.

For `COCCN1CCC(C(=O)NO)(S(=O)(=O)c2ccc(N3CCC(C(=O)c4ccc(OCCC5CCCCC5)cc4)CC3)cc2)CC1` [Example 228], the IC50 is 19.5 nM at Recombinant human MMP-13 and 155 nM at Recombinant human MMP-2.

On to `C#CCN1CCC(C(=O)NO)(S(=O)(=O)c2ccc(N3CCC(C(=O)c4ccc(NC)cc4)CC3)cc2)CC1` [Example 173], for which the IC50 at Recombinant human MMP-13 was 0.9 nM; on Recombinant human MMP-2, 117 nM.

For the compound `COCCN1CCC(C(=O)NO)(S(=O)(=O)c2ccc(N3CCC(C(=O)c4ccc(C)cc4)CC3)c(Cl)c2)CC1` [Example 275], the figures for the IC50 at Recombinant human MMP-13 and at Recombinant human MMP-2 were 184 nM and 6740 nM, respectively.

As to `O=C(NO)C1(S(=O)(=O)c2ccc(N3CCC(c4ccc(Cl)cc4)CC3)cc2)CCN(CC2CC2)CC1` [Example 266], on Recombinant human MMP-13, the IC50 amounted to 1.7 nM.

Take `C=CCN1CCC(C(=O)NO)(S(=O)(=O)c2ccc(N3CCC(C(=O)c4ccc(CCC)cc4)CC3)cc2)CC1` [Example 159]: the IC50 on Recombinant human MMP-13 turned out to be 0.5 nM; at Recombinant human MMP-2, 32.2 nM.

Turning to `COCCN1CCC(C(=O)NO)(S(=O)(=O)c2ccc(N3CCC(C(=O)c4ccc(COC)s4)CC3)cc2)CC1` [Example 252], the results for the IC50 at Recombinant human MMP-13 and on Recombinant human MMP-2 were 0.4 nM and 14.3 nM, respectively.

As for `CCCCOc1ccc(C(=O)C2CCN(c3ccc(S(=O)(=O)C4(C(=O)NO)CCOCC4)cc3)CC2)cc1` [Example 329], the IC50 on Recombinant human MMP-13 came to 20 nM; on Recombinant human MMP-2, 1800 nM.

Turning to `COCCN1CCC(C(=O)NO)(S(=O)(=O)c2ccc(N3CCC(C(=O)c4cccc(OC)c4)CC3)c(Cl)c2)CC1` [Example 276], the IC50 was 127 nM on Recombinant human MMP-13 and 2730 nM on Recombinant human MMP-2.

With `COCCN1CCC(C(=O)NO)(S(=O)(=O)c2ccc(N3CCC(c4ccc(F)cc4)CC3)cc2)CC1` [Example 262], the IC50 at Recombinant human MMP-13 stood at 1 nM; at Recombinant human MMP-2 it was 1.7 nM.

As for `COCCN1CCC(C(=O)NO)(S(=O)(=O)c2ccc(N3CCC(C(=O)c4ccc(CO)cc4)CC3)cc2)CC1` [Example 238], the IC50 was determined as 1.8 nM at Recombinant human MMP-13 and 62.1 nM at Recombinant human MMP-2.

With `O=C(c1ccc(CN2CCCC2)cc1)C1CCN(c2ccc(S(=O)(=O)C3(C(=O)NO)CCOCC3)cc2)CC1` [Example 385], the IC50 worked out at 3.2 nM at Recombinant human MMP-13 and 34.6 nM at Recombinant human MMP-2.

Regarding `CCCc1ccc(C(=O)C2CCN(c3ccc(S(=O)(=O)C4(C(=O)NO)CCN(S(C)(=O)=O)CC4)cc3)CC2)cc1` [Example 165], the IC50 on Recombinant human MMP-13 was found to be 85.9 nM; at Recombinant human MMP-2 it was 1750 nM.

As for `O=C(NO)C1(S(=O)(=O)c2ccc(N3CCC(SCc4cccc(C(F)(F)F)c4)CC3)cc2)CCN(C2CC2)CC1` [Example 149], the IC50 at Recombinant human MMP-13 came to 16.9 nM; on Recombinant human MMP-2 it was 210 nM.

For the compound `CN(C)c1ccc(C(=O)C2CCN(c3ccc(S(=O)(=O)C4(C(=O)NO)CCOCC4)cc3)CC2)cc1` [Example 320], the IC50 on Recombinant human MMP-2 was 10000 nM.

On to `CN(C)CCN1CCN(C(=O)C2CCN(c3ccc(S(=O)(=O)C4(C(=O)NO)CCOCC4)cc3)CC2)CC1` [Example 19], for which the IC50 on Recombinant human MMP-2 worked out at 10000 nM.

Regarding `O=C(Cc1cccs1)C1CCN(c2ccc(S(=O)(=O)C3(C(=O)NO)CCOCC3)cc2)CC1` [Example 387], the IC50 at Recombinant human MMP-13 was found to be 4.5 nM; on Recombinant human MMP-2 it was 344 nM.

Consider `COCCN1CCC(C(=O)NO)(S(=O)(=O)c2ccc(N3CCC(C(=O)c4ccc(C=C(C)C)s4)CC3)cc2)CC1` [Example 122], for which the values for the IC50 on Recombinant human MMP-13 and on Recombinant human MMP-2 were 0.1 nM and 106 nM, respectively.

`COCCN1CCC(C(=O)NO)(S(=O)(=O)c2ccc(N3CCC(C(=O)c4ccc(CN5CCOCC5)cc4)CC3)cc2)CC1` [Example 240]: the IC50 on Recombinant human MMP-13 is 2.8 nM; at Recombinant human MMP-2, 86 nM.

On to `CC1CC(C)CN(C(=O)C2CCN(c3ccc(S(=O)(=O)C4(C(=O)NO)CCN(C(=O)CN5CCN(CCN(C)C)CC5)CC4)cc3)CC2)C1` (stereo not drawn) [Example 111], for which, on Recombinant human MMP-2, the IC50 was 10000 nM.

As for `CC1CC(C)CN(C(=O)C2CCN(c3ccc(S(=O)(=O)C4(C(=O)NO)CCN(C(=O)CNCC(F)(F)F)CC4)cc3)CC2)C1` (stereo not drawn) [Example 113], the IC50 on Recombinant human MMP-2 was 10000 nM.

`O=C(NO)C1(S(=O)(=O)c2ccc(N3CCC(N4CCc5ccccc54)CC3)cc2)CCOCC1` [Example 383]: the IC50 worked out at 36.9 nM at Recombinant human MMP-13 and 382 nM at Recombinant human MMP-2.

On to `COCCN1CCC(C(=O)NO)(S(=O)(=O)c2ccc(N3CCC(c4nc5ccccc5o4)CC3)cc2)CC1` [Example 258], for which the values for the IC50 at Recombinant human MMP-13 and at Recombinant human MMP-2 were 14.1 nM and 45.4 nM, respectively.

For the compound `Cc1ccc(C2CCN(c3ccc(S(=O)(=O)C4(C(=O)NO)CCN(CC5CC5)CC4)cc3)CC2)cc1` [Example 273], the figures for the IC50 on Recombinant human MMP-13 and on Recombinant human MMP-2 were 2.5 nM and 13.4 nM, respectively.

For `O=C(NO)C1(S(=O)(=O)c2ccc(N3CCC(SCc4ccc(OC(F)(F)F)cc4)CC3)cc2)CCN(C2CC2)CC1` [Example 143], the IC50 amounted to 2.1 nM at Recombinant human MMP-13 and 100 nM at Recombinant human MMP-2.

With `O=C(NO)C1(S(=O)(=O)c2ccc(N3CCC(c4nnc(-c5ccc(C(F)(F)F)cc5)o4)CC3)cc2)CCOCC1` [Example 375], the IC50 at Recombinant human MMP-13 amounted to 34.4 nM; on Recombinant human MMP-2, 2660 nM.

In the case of `O=C(NO)C1(S(=O)(=O)c2ccc(N3CCC(c4ccc(Cl)cc4)CC3)cc2)CCN(C2CC2)CC1` [Example 261], the IC50 at Recombinant human MMP-13 was found to be 0.8 nM; on Recombinant human MMP-2, 1 nM.

Take `Cn1ccc2cc(C(=O)C3CCN(c4ccc(S(=O)(=O)C5(C(=O)NO)CCOCC5)cc4)CC3)ccc21` [Example 340]: the IC50 on Recombinant human MMP-2 amounted to 10000 nM.

Take `COCCN1CCC(C(=O)NO)(S(=O)(=O)c2ccc(N3CCC(C(=O)c4ccc(CCCC(C)O)cc4)CC3)cc2)CC1` (stereo not drawn) [Example 244]: the IC50 at Recombinant human MMP-13 came to 0.2 nM.
